# Source: paper PMC6278295, “Shape Effects of Peptide Amphiphile Micelles for Targeting Monocytes” (Molecules, 2018)
# Tests used:
# murine monocytes = assay: Chemotaxis assay (transwell, migrated monocyte DNA); assay type: cell-based; settings: 4 h, 8 µm pore transwell, Pico Green, n = 4
# Procedure: To determine the chemoattractant properties of PAMs, 50,000 monocytes in 20 µL were suspended on a 24-well transwell plate with 8 µm pores. After 4 h, the number of cells that migrated to the bottom well containing 1 µM, 10 µM, 100 µM, 1000 µM PAMs, peptides, or PBS was quantified by lysing the cells via sonication, and measuring DNA using Quant-it Pico Green (Invitrogen, Carlsbad, CA, USA).
# [1] = Circular dichroism secondary structure; assay type: physicochemical; settings: CD, 100 µM, 190-240 nm, five scans averaged, Provencher & Glockner Method
# Procedure: Circular dichroism (CD) spectroscopy was carried out using a Jasco J-815 spectropolarimeter (Easton, MD, USA). PAM solutions (100 µM) were analyzed in 0.2 mm path-length cuvettes. Measurements were made at 0.5 nm intervals from 190 nm to 240 nm with 1 s intervals and 1 nm bandwidth. Data from five scans were averaged to create the CD spectra, and the secondary structures were quantified using the Provencher & Glockner Method.
"Secondary Structure, Alpha Helix [1] [%]","Secondary Structure, Beta Sheet [1] [%]","Secondary Structure, Random Coil [1] [%]",Sequence,Amount of migrated monocyte DNA at 1000 µM (murine monocytes) [ng/mL]
9.2,36.2,54.5,"YNFTNRKISVQRLASYRRITSSK [MCP-1 Peptide, MCP-1 peptide (residues 13–35) modified with a cysteine at the N-terminus]",78.98 ± 0.8
8.6,43.9,47.5,"YNSLVFRIRNSTQRKYRASIST [Scrambled MCP-1 Peptide, scrambled version of the MCP-1 peptide designed to mimic its secondary structure]",
